Assay results taken from US20240218022A1, “ANTI-VISTA MACROCYCLIC PEPTIDES AND COMPOSITIONS” (BRISTOL-MYERS SQUIBB COMPANY, priority 2022, published 2024).
Blank lines part the entries; values can stand above or below the compound they belong to. Starred links: 1 amine or outer side, 2 acyl side, 3 side chain; linkers in the order of their positions; H or OH if unused. Positions of bridges follow the written chain, without caps; N, C: chain ends. Non-standard residues stand in square brackets, D forms with d. Residues, ends and D or L forms follow the SMILES beside them. γGlu = O=C(O)[C@H](CCC(=O)[*:2])N[*:1]; Ahp(2) = CCCCC[C@H](N)C(=O)O; NMeNle = CCCC[C@H](NC)C(=O)O; Tle = CC(C)(C)[C@H](N)C(=O)O; NHexGly = CCCCCCNCC(=O)O; Nle = CCCC[C@H](N)C(=O)O; Aun = NCCCCCCCCCCC(=O)O; AEEA = NCCOCCOCC(=O)O

Target: T1, mouse VISTA (mVISTA) (Mus musculus, UniProt Q9D659)
T1 construct: expressed in transfected cells; host or cells: Human embryonic kidney 293T cells
T1 sequence (Q9D659 33-308): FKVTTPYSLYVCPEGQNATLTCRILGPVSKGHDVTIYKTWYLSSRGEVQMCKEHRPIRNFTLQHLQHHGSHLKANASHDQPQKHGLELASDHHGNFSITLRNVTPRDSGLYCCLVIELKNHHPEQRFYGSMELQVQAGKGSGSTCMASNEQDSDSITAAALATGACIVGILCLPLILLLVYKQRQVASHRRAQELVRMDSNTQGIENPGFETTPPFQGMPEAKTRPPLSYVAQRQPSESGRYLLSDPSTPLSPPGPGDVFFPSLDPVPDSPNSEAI
Assay: Cell-Based Binding High-Content Assay For mVISTA (HC CBA mVISTA)
Conditions: read-out: HC CBA mVISTA IC50
Outline: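 Read-out: Alexa 647–streptavidin signal imaged on fixed, Hoechst-stained mVISTA-293T cells, with IC50 taken from a four-parameter logistic curve. Compounds competed with 2 nM biotinylated peptide for 30 min at room temperature, tested under both no-wash and wash (1 h compound, media exchange, 1 h) formats.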

SMILES: CCCCCCN1CC(=O)N[C@@H](Cc2ccc(O)cc2)C(=O)N[C@@H](CC(C)C)C(=O)N[C@@H](CC(N)=O)C(=O)N[C@@H](CCCNC(=N)N)C(=O)N[C@@H](CC(C)C)C(=O)N[C@@H](CCCCC)C(=O)N2CCC[C@H]2C(=O)N[C@@H](C(C)(C)C)C(=O)N[C@@H](C(C)C)C(=O)N[C@H](C(=O)NCCOCCOCC(=O)N[C@@H](CCC(=O)NCCOCCOCC(=O)NCCCCCCCCCCC(=O)O)C(=O)O)CSCC(=O)N[C@@H](Cc2ccccc2)C(=O)N[C@@H](Cc2c[nH]c3ccccc23)C(=O)N[C@@H](CC(=O)O)C1=O [compound 2231] ({CH2CO}-FWD[NHexGly]YLNRL[Ahp(2)]P[Tle]VC[AEEA][γGlu][AEEA][Aun]-OH; thioether N-14)
- IC50: 0.0425 µM

SMILES: CCCCCCN1CC(=O)N[C@@H](Cc2ccc(O)cc2)C(=O)N[C@@H](CCCC)C(=O)N[C@@H](CC(N)=O)C(=O)N[C@@H](CCCNC(=N)N)C(=O)N[C@@H](CC(C)C)C(=O)N[C@@H](CCCCC)C(=O)N2CCC[C@H]2C(=O)N[C@@H](C(C)(C)C)C(=O)N[C@@H](CC(=O)O)C(=O)N[C@H](C(=O)NCCOCCOCC(=O)N[C@@H](CCC(=O)NCCOCCOCC(=O)NCCCCCCCCCCC(=O)O)C(=O)O)CSCC(=O)N[C@@H](Cc2ccccc2)C(=O)N[C@@H](Cc2ccc(O)cc2)C(=O)N[C@@H](CC(=O)O)C1=O [compound 2233] ({CH2CO}-FYD[NHexGly]Y[Nle]NRL[Ahp(2)]P[Tle]DC[AEEA][γGlu][AEEA][Aun]-OH; thioether N-14)
- IC50: 0.0291 µM

SMILES: CCCCCCN1CC(=O)N[C@@H](Cc2ccc(O)cc2)C(=O)N[C@@H](CCCC)C(=O)N[C@@H](CC(N)=O)C(=O)N[C@@H](CCCNC(=N)N)C(=O)N[C@@H](CC(C)C)C(=O)N[C@@H](CCCCC)C(=O)N2CCC[C@H]2C(=O)N[C@@H](C(C)(C)C)C(=O)N[C@@H](C(C)C)C(=O)N[C@H](C(=O)NCCOCCOCC(=O)N[C@@H](CCC(=O)NCCOCCOCC(=O)NCCCCCCCCCCC(=O)O)C(=O)O)CSCC(=O)N[C@@H](Cc2ccccc2)C(=O)N[C@@H](Cc2ccc(O)cc2)C(=O)N[C@@H](CC(=O)O)C1=O [compound 2234] ({CH2CO}-FYD[NHexGly]Y[Nle]NRL[Ahp(2)]P[Tle]VC[AEEA][γGlu][AEEA][Aun]-OH; thioether N-14)
- IC50: 0.0322 µM

SMILES: CCCCCCN1CC(=O)N[C@@H](Cc2ccc(O)cc2)C(=O)N[C@@H](CCCC)C(=O)N[C@@H](CC(N)=O)C(=O)N[C@@H](CCCNC(=N)N)C(=O)N[C@@H](CC(C)C)C(=O)N[C@@H](CCCCC)C(=O)N2CCC[C@H]2C(=O)N[C@@H](C(C)(C)C)C(=O)N[C@@H](CC(=O)O)C(=O)N[C@H](C(=O)NCCOCCOCC(=O)N[C@@H](CCC(=O)NCCOCCOCC(=O)NCCCCCCCCCCC(=O)O)C(=O)O)CSCC(=O)N[C@@H](Cc2ccccc2)C(=O)N[C@@H](Cc2c[nH]c3ccccc23)C(=O)N[C@@H](CC(=O)O)C1=O [compound 2237] ({CH2CO}-FWD[NHexGly]Y[Nle]NRL[Ahp(2)]P[Tle]DC[AEEA][γGlu][AEEA][Aun]-OH; thioether N-14)
- IC50: 0.0362 µM

SMILES: CCCCCCN1CC(=O)N[C@@H](Cc2ccc(O)cc2)C(=O)N[C@@H](CCCC)C(=O)N[C@@H](CC(N)=O)C(=O)N[C@@H](CCCNC(=N)N)C(=O)N[C@@H](CC(C)C)C(=O)N[C@@H](CCCCC)C(=O)N2CCC[C@H]2C(=O)N[C@@H](C(C)(C)C)C(=O)N[C@@H](CO)C(=O)N[C@H](C(=O)NCCOCCOCC(=O)N[C@@H](CCC(=O)NCCOCCOCC(=O)NCCCCCCCCCCC(=O)O)C(=O)O)CSCC(=O)N[C@@H](Cc2ccccc2)C(=O)N[C@@H](Cc2ccc(O)cc2)C(=O)N[C@@H](CC(=O)O)C1=O [compound 2238] ({CH2CO}-FYD[NHexGly]Y[Nle]NRL[Ahp(2)]P[Tle]SC[AEEA][γGlu][AEEA][Aun]-OH; thioether N-14)
- IC50: 0.038 µM

SMILES: CCCCCCN1CC(=O)N[C@@H](Cc2ccc(O)cc2)C(=O)N[C@@H](CCCC)C(=O)N[C@@H](CC(N)=O)C(=O)N[C@@H](CCCNC(=N)N)C(=O)N(C)[C@@H](CCCC)C(=O)N[C@@H](CCCCC)C(=O)N2CCC[C@H]2C(=O)N[C@@H](C(C)(C)C)C(=O)N[C@@H](C(C)C)C(=O)N[C@H](C(=O)NCCOCCOCC(=O)N[C@@H](CCC(=O)NCCOCCOCC(=O)NCCCCCCCCCCC(=O)O)C(=O)O)CSCC(=O)N[C@@H](Cc2ccccc2)C(=O)N[C@@H](Cc2c[nH]c3ccccc23)C(=O)N[C@@H](CC(=O)O)C1=O [compound 2239] ({CH2CO}-FWD[NHexGly]Y[Nle]NR[NMeNle][Ahp(2)]P[Tle]VC[AEEA][γGlu][AEEA][Aun]-OH; thioether N-14)
- IC50: 0.0486 µM

Compounds with a lower IC50, results first:

- IC50: 0.0244 µM
SMILES: CCCCCCN1CC(=O)N[C@@H](Cc2ccc(O)cc2)C(=O)N[C@@H](CC(C)C)C(=O)N[C@@H](CC(N)=O)C(=O)N[C@@H](CCCNC(=N)N)C(=O)N[C@@H](CC(C)C)C(=O)N[C@@H](CCCCC)C(=O)N2CCC[C@H]2C(=O)N[C@@H](C(C)(C)C)C(=O)N[C@@H](C(C)C)C(=O)N[C@H](C(=O)NCCOCCOCC(=O)N[C@@H](CCC(=O)NCCOCCOCC(=O)NCCCCCCCCCCC(=O)O)C(=O)O)CSCC(=O)N[C@@H](Cc2ccccc2)C(=O)N[C@@H](Cc2ccc(O)cc2)C(=O)N[C@@H](CC(=O)O)C1=O [compound 2240] ({CH2CO}-FYD[NHexGly]YLNRL[Ahp(2)]P[Tle]VC[AEEA][γGlu][AEEA][Aun]-OH; thioether N-14)

- IC50: 0.0237 µM
SMILES: CCCCCCN1CC(=O)N[C@@H](Cc2ccc(O)cc2)C(=O)N[C@@H](CC(C)C)C(=O)N[C@@H](CC(N)=O)C(=O)N[C@@H](CCCNC(=N)N)C(=O)N[C@@H](CC(C)C)C(=O)N[C@@H](CCCCC)C(=O)N2CCC[C@H]2C(=O)N[C@@H](C(C)(C)C)C(=O)N[C@@H](CC(=O)O)C(=O)N[C@H](C(=O)NCCOCCOCC(=O)N[C@@H](CCC(=O)NCCOCCOCC(=O)NCCCCCCCCCCC(=O)O)C(=O)O)CSCC(=O)N[C@@H](Cc2ccccc2)C(=O)N[C@@H](Cc2c[nH]c3ccccc23)C(=O)N[C@@H](CC(=O)O)C1=O [compound 2236] ({CH2CO}-FWD[NHexGly]YLNRL[Ahp(2)]P[Tle]DC[AEEA][γGlu][AEEA][Aun]-OH; thioether N-14)

- IC50: 0.0151 µM
SMILES: CCCCCCN1CC(=O)N[C@@H](Cc2ccc(O)cc2)C(=O)N[C@@H](CC(C)C)C(=O)N[C@@H](CC(N)=O)C(=O)N[C@@H](CCCNC(=N)N)C(=O)N[C@@H](CC(C)C)C(=O)N[C@@H](CCCCC)C(=O)N2CCC[C@H]2C(=O)N[C@@H](C(C)(C)C)C(=O)N[C@@H](CO)C(=O)N[C@H](C(=O)NCCOCCOCC(=O)N[C@@H](CCC(=O)NCCOCCOCC(=O)NCCCCCCCCCCC(=O)O)C(=O)O)CSCC(=O)N[C@@H](Cc2ccccc2)C(=O)N[C@@H](Cc2ccc(O)cc2)C(=O)N[C@@H](CC(=O)O)C1=O [compound 2235] ({CH2CO}-FYD[NHexGly]YLNRL[Ahp(2)]P[Tle]SC[AEEA][γGlu][AEEA][Aun]-OH; thioether N-14)

- IC50: 0.013 µM
SMILES: CCCCCCN1CC(=O)N[C@@H](Cc2ccc(O)cc2)C(=O)N[C@@H](CC(C)C)C(=O)N[C@@H](CC(N)=O)C(=O)N[C@@H](CCCNC(=N)N)C(=O)N[C@@H](CC(C)C)C(=O)N[C@@H](CCCCC)C(=O)N2CCC[C@H]2C(=O)N[C@@H](C(C)(C)C)C(=O)N[C@@H](CC(=O)O)C(=O)N[C@H](C(=O)NCCOCCOCC(=O)N[C@@H](CCC(=O)NCCOCCOCC(=O)NCCCCCCCCCCC(=O)O)C(=O)O)CSCC(=O)N[C@@H](Cc2ccccc2)C(=O)N[C@@H](Cc2ccc(O)cc2)C(=O)N[C@@H](CC(=O)O)C1=O [compound 2232] ({CH2CO}-FYD[NHexGly]YLNRL[Ahp(2)]P[Tle]DC[AEEA][γGlu][AEEA][Aun]-OH; thioether N-14)
